Consider 3 compounds from article PMC9243782 (Aaps Open, 2022).

Data set [1] is described as follows: First in human single ascending dose and food effect PK study of JOTROL, plasma. The following applies: for Tmax / AUC(0-t) / half-life / AUC(0-inf) / k el / Cmax: both, human; for AUC(0-inf): AUC0-inf; for k el: Kel. On the procedure: A total of 24 healthy, adult male or female volunteers were included in study part 1. […] A food effect arm was also included as part 2. […] Given that the in life portion of the study was done during the pandemic, total number, gender, ethnicity, etc., of the subjects was not mandated. A total of 4 study periods were included in this study with washout of at least 14 days between doses. […] After the completion of each cohort, an evaluation of the safety data was performed prior to determining whether to proceed with enrollment for the next scheduled dose level, to modify the dose, or to discontinue the study. […] The aliquots were transferred to a - 80 °C freezer (no more than 60 min passed between the start of centrifugation and aliquot storage), pending analysis/shipment to the analytical facility. […] Samples are extracted by a protein precipitation extraction procedure, and the compounds are detected and quantified by tandem mass spectrometry in positive ion mode on an MDS Sciex API 6500+ equipped with a Turbo Ionspray® interface. […] All concentration values that were below the lower limit of quantification (BLQ) occurring prior to dosing as well as samples with no reportable value (NRV) occurring prior to dosing were replaced by “0.00”; otherwise, they (BLQ and NRV) were set to missing for tabulation, graphical representation, and calculation purposes. PK analyses were performed using Phoenix WinNonlin® version 8.2, which was validated by Syneos Health. The WinNonlin noncompartmental analysis (NCA) module was used [NT]0-t (last detectable concentration), AUC0-inf (infinity), residual area (%), Cmax, Tmax, T1/2 el (elimination half-life), and Kel (elimination rate constant). […] Power model included the PK parameter as the response variable and dose (mg) as the explanatory variable. For this model, the variable dose was treated as a continuous variable. For evaluation of the food-effect, PK data (ln-transformed AUC0-t, AUC0-inf, Cmax and untransformed Tmax) reported under fed conditions (Period 4) and under fasting conditions (for the same dose level) were compared using analysis of variance (ANOVA) from SAS®. The ratio (fed/fasting) and 90% geometric CI were also calculated for AUC0-t, AUC0-inf, and Cmax.

Data set [2] can be described thus: First in human PK study of JOTROL, urine excretion. It is filed as in vivo. The following applies: for CL renal: human, urine. On the procedure:
For day 2 (24 h post-dose) urine collection, subjects were asked to void their bladder within 15 min before the end of the collection interval (12–24 h). For other collections, subjects were asked to void their bladder within 10 min before the end of each collection interval. Urine voided at the intersection of two intervals was included in the earlier interval. Any urine voided by subjects but not collected was documented.
The volume of urine collected in each interval was measured (individual urine volumes are on file), and two aliquots of equal volume were dispensed into polypropylene tubes for each interval. Aliquots were stored in a − 80 °C freezer, pending analysis; remaining urine from each subject was discarded.

The conditions of data set [3]: cited from earlier work.
[4] abbreviates: plasma, po, 200 mg, resveratrol in plasma, mean, Treatment A: JOTROL 200 mg single oral dose, fasting.
Setting [5] is: plasma, po, 500 mg, resveratrol in plasma, mean, Treatment B: JOTROL 500 mg single oral dose, fasting.
The mark [6] stands for this setting: plasma, po, 500 mg, resveratrol in plasma, mean, Treatment D: JOTROL 500 mg single oral dose, fed (high-fat meal).
Where [7] appears, read: plasma, po, 700 mg, resveratrol in plasma, mean, Treatment C: JOTROL 700 mg single oral dose, fasting.
Setting [8] is: 500 mg caplets, 5 g, mean ± SD, ref Boocock et al. ([2007]).
Setting [9] is: 500 mg caplets, 5 g, mean ± SD, ref Brown et al. ([2010]).
Setting [10] is: Friedreich's ataxia study, ref Yiu et al. ([2015]).

Read-outs that look alike come from different tables or passages of the source. Bounds are passed on as bounds.

As usually defined, the half-life is the time in which the quantity being followed falls by half. The low end stands for rapid decline, the high end for slow decline. By AUC is commonly meant concentration integrated over time. Consider `Oc1ccc(/C=C/c2cc(O)cc(O)c2)cc1` [Resveratrol, 3,5,4′-stilbenotriol], for which, in data set [1] (JOTROL 500 mg fed vs fasting), the “Delay of the peak concentration by food” value is “approximately 30 min”. Besides, the “Dose proportionality of AUC0-t and Cmax (power model)” value in data set [1] (JOTROL 200, 500, 700 mg fasting) was “higher than expected if dose proportional”. Further, in data set [1] (all JOTROL doses, p = 0.011), the “Gender differences in the exposure of resveratrol” value is listed as “mean female AUC values tend to be higher than male values”. In addition, the Tmax in data set [1] (in vivo, po, 500 mg) was 1 h; in data set [1] (plasma, oral), around 1 h; in data set [1] (plasma, po, 200 mg), 0.999 h; in data set [1] (plasma, po, 700 mg) it was 1.02 h. The AUC(0-t) was 149 to 886 ng·h/mL in data set [1] (plasma, oral, Mean AUC0-t, range over doses, resveratrol in plasma, JOTROL 200 to 700 mg, fasting); 149 ng·h/mL in data set [1] (plasma, po, 200 mg, AUC0-t, resveratrol in plasma, mean, Treatment A: JOTROL 200 mg single oral dose, fasting); 480 ng·h/mL in data set [1] (plasma, po, 500 mg, AUC0-t, resveratrol in plasma, mean, Treatment B: JOTROL 500 mg single oral dose, fasting); 306 ng·h/mL in data set [1] (plasma, po, 500 mg, AUC0-t, resveratrol in plasma, mean, Treatment D: JOTROL 500 mg single oral dose, fed (high-fat meal)); 886 ng·h/mL in data set [1] (plasma, po, 700 mg, AUC0-t, resveratrol in plasma, mean, Treatment C: JOTROL 700 mg single oral dose, fasting). The half-life is around 2 h in data set [1] (plasma, oral, T½, resveratrol in plasma after JOTROL, N low, interpret with caution); 1.26 h in data set [1] (plasma, po, 200 mg, T1/2 el, resveratrol in plasma, mean, Treatment A: JOTROL 200 mg single oral dose, fasting); 2.74 h in data set [1] (plasma, po, 500 mg, T1/2 el, resveratrol in plasma, mean, Treatment B: JOTROL 500 mg single oral dose, fasting); 1.71 h in data set [1] (plasma, po, 500 mg, T1/2 el, resveratrol in plasma, mean, Treatment D: JOTROL 500 mg single oral dose, fed (high-fat meal)); 1.6 h in data set [1] (plasma, po, 700 mg, T1/2 el, resveratrol in plasma, mean, Treatment C: JOTROL 700 mg single oral dose, fasting). For the same compound, the AUC(0-inf) in data set [1] (setting [4]) turned out to be 215 ng·h/mL; in data set [1] (setting [5]), 574 ng·h/mL; in data set [1] (setting [6]) it was 613 ng·h/mL; in data set [1] (setting [7]), 611 ng·h/mL. For the same compound, the k el in data set [1] (setting [4]) is 0.000153 s⁻¹; in data set [1] (setting [5]), 9.22e-05 s⁻¹; in data set [1] (setting [6]), 0.000152 s⁻¹; in data set [1] (setting [7]), 0.000126 s⁻¹. Also, the Cmax in data set [1] (plasma, po, 500 mg, Cmax, resveratrol in plasma, mean, Treatment B: JOTROL 500 mg single oral dose, fasting) is 455 ng/mL; in data set [1] (plasma, po, 700 mg, Cmax, resveratrol in plasma, mean, Treatment C: JOTROL 700 mg single oral dose, fasting), 805 ng/mL; in data set [3] (25 mg (overnight fast +3 h), radiolabeled dose, ref Walle et al. ([2004])), below 5 ng/mL; in data set [3] (setting [8]), 538 ± 391 ng/mL; in data set [3] (setting [9]), 967 ± 517 ng/mL; in data set [3] (1 g encapsulated dose, ref Turner et al., Neurology 85:1383-91, 2015), 85 ng/mL. The Cmax in data set [3] (2 g, 500 mg encapsulated, mean ± SD, ref Turner et al. ([2015])) was 85 ± 184 ng/mL; in data set [3] (2.5 g micronized dose, ref Howells et al., Cancer Prev Res (Phila) 4:1419-1425, 2011), 1942 ng/mL. Moreover, the “Residual Area” value in data set [1] (resveratrol in plasma, mean, Treatment D: JOTROL 500 mg single oral dose, fed (high-fat meal)) came to 3.7%. For the same compound, the CL renal in data set [2] (oral, resveratrol after JOTROL 200 to 700 mg, read-out: Renal clearance, range over treatments) was 2.33 to 4.17 mL/min; in data set [2] (oral, resveratrol after JOTROL, conversion of 0.14 to 0.25 L/h, read-out: Renal clearance), around 4 mL/min; in data set [2] (po, 200 mg, resveratrol renal clearance, mean, Treatment A: JOTROL 200 mg single oral dose, fasting, read-out: CLR (converted)), 4.17 mL/min; in data set [2] (po, 500 mg, resveratrol renal clearance, mean, Treatment B: JOTROL 500 mg single oral dose, fasting, read-out: CLR (converted)), 2.33 mL/min; in data set [2] (po, 700 mg, resveratrol renal clearance, mean, Treatment C: JOTROL 700 mg single oral dose, fasting, read-out: CLR (converted)) it was 3.17 mL/min. Also, in data set [2] (resveratrol after JOTROL), the “Renal clearance as share of GFR” value is 3 % of GFR. This compound yielded a TRmax in data set [2] (resveratrol in urine, mean, Treatment A: JOTROL 200 mg single oral dose, fasting) of 1.5 h. The AUC was 1319 ± 780 ng·h/mL in data set [3] (500 mg caplets, 5 g, AUC to infinity, mean ± SD, ref Boocock et al. ([2007])) and 4097 ± 4384 ng·h/mL in data set [3] (setting [9]). Further, the t1/2 in data set [3] (setting [8]) was 8.5 ± 8.2 h; in data set [3] (setting [9]), 7.85 ± 1.97 h; in data set [3] (2 g, 500 mg encapsulated, ref Turner et al. ([2015])) it was 15 h. In addition, the “AUC exposure (estimated)” value in data set [3] (3,000 mg/day of unmodified resveratrol, healthy volunteers, ref published data) was 2100 ng·h/mL. Besides, in data set [3] (Alzheimer's trial, ref Turner et al. [2015], Moussa et al. [2017], Sawda et al. [2017]), the “Plasma Cmax associated with positive biomarker outcomes (amyloid beta, inflammation modulators)” value was 85 ng/mL. Moreover, the “Nominal mean plasma Cmax not associated with any efficacy” value in data set [3] (setting [10]) is 128 ng/mL. Moreover, the “Nominal plasma mean Cmax associated with positive clinical outcomes” value in data set [3] (setting [10]) is 261 ng/mL.
For `Oc1ccc(/C=C/c2cc(O)cc(O)c2)cc1` [micronized resveratrol], the Absorption in data set [3] (human, in vivo, po) is listed as ~ 70%.
Regarding `O=S(=O)(O)Oc1cc(O)cc(C=Cc2ccc(O)cc2)c1` [resveratrol-3-sulfate], the “Effect of food consumption on metabolite concentrations” value in data set [1] (JOTROL 500 mg fed vs fasting) is reported as “significantly decreased”. The AUC(0-t) in data set [1] (plasma, oral, Mean AUC0-t, range over doses, metabolite in plasma, increasing JOTROL (resveratrol) doses) is 12000 to 54500 ng·h/mL. Besides, the Cmax in data set [1] (plasma, oral, Mean Cmax, range over doses, metabolite in plasma, increasing JOTROL (resveratrol) doses) was in the range of 6620 to 23600 ng/mL.
